Data as given in publication PMC5863515, “Re-evaluation of Adrenocorticotropic Hormone and Melanocyte Stimulating Hormone Activation of GPR139 in Vitro” (Frontiers in Pharmacology, 2018).
Ends that are not written are not given here.

Assays:
MC3R + GPR139 = MC3R + GPR139 (Homo sapiens, UniProt Q6DWJ6); experiment: Calcium mobilization, HEK-293 transiently expressing MC3R + GPR139; format: cell-based; settings: MC3R + GPR139; 10 μM JNJ-3792165 or 1 μM HS-024
Procedure: Intracellular calcium mobilization was measured with the BD calcium kit (BD Bioscience, San Jose, CA, United States). The recombinant cell lines expressing MC3R, MC4R, and MC5R with and without GPR139 or Gα16 were seeded in culture media at a density of 50,000 cells/well into 96-well black/clear-bottom poly-D-lysine treated tissue culture plates. Cells were incubated overnight at 37°C and 5% CO2. Next day, culture media was removed and cells were washed with HBSS prior to dye-loading for 1 h at 37°C and 5% CO2. Agonist stimulation and intracellular calcium measurements were done on the FLIPR Tetra (Molecular Devices, Sunnyvale, CA, United States). […] EC50s were calculated by fitting a three-parameter logistic curve using least-squares non-linear regression analysis as implemented in Graphpad Prism 7.0.

MC4R + GPR139 = MC4R + GPR139 (Homo sapiens, UniProt Q6DWJ6); experiment: Calcium mobilization, HEK-293 transiently expressing MC4R + GPR139; format: cell-based; settings: MC4R + GPR139; 10 μM JNJ-3792165 or 1 μM HS-024
Procedure: (§1) Human MC3R (NM_019888), MC4R (NM_005912), and MC5R (NM_005913) were transiently expressed in HEK-293 cells with and without human GPR139 (KR081941) or the chimeric G-protein Gα16. All genes were cloned into pCIneo (Promega, Madison, WI, United States, #E1841). HEK-293 cells were cultured in DMEM/F12 (Gibco, Grand Island, NY, United States, #11039-021), 10% FBS (Hyclone, Logan, UT, United States, # SH300700.03), 50 units/ml penicillin and 50 μg/ml streptomycin (Mediatech, Manassas, VA, United States, #30-001-CI). Cells were seeded at 4 × 10^6 cells in 10 cm dishes and allowed to grow overnight at 37°C, 5% CO2. On the day of transfection, culture media was replaced with F12-K (Mediatech, Manassas, VA, United States, #10-025-CV), 10% FBS, 20 mM HEPES (Hyclone, Logan, UT, United States, #SH30237.01) and transfected with 15 μg DNA (10 μg MCR:5 μg pCIneo, 10 μg MCR:5 μg Gα16 or 7.5 μg MCR:7.5 μg GPR139) using FuGene HD (Promega, Madison, WI, United States, #E2311) according to manufacturer’s instructions. MC3R, MC4R, and MC5R were also transiently expressed in the following GPR139 stably expressing cell lines using the FuGENE HD method: HEK-293 GPR139 clone#33, CHO-TREx GPR139 clone#18, and SK-N-MC/CRE TREx GPR139 clone#35. Stable cell lines were established according to method previously described ([Liu et al., 2015]).
(§2) Intracellular calcium mobilization was measured with the BD calcium kit (BD Bioscience, San Jose, CA, United States). The recombinant cell lines expressing MC3R, MC4R, and MC5R with and without GPR139 or Gα16 were seeded in culture media at a density of 50,000 cells/well into 96-well black/clear-bottom poly-D-lysine treated tissue culture plates. Cells were incubated overnight at 37°C and 5% CO2. Next day, culture media was removed and cells were washed with HBSS prior to dye-loading for 1 h at 37°C and 5% CO2. Agonist stimulation and intracellular calcium measurements were done on the FLIPR Tetra (Molecular Devices, Sunnyvale, CA, United States). For receptor inhibition analysis, antagonists (1 μM HS-024 or 10 μM JNJ-3792165) were added off-line 15 min prior to agonist addition on the Tetra. For G-protein inhibitor experiments, cells were treated with 1 μM YM-254890 for 5 min prior to agonist additions on the Tetra. […] Responses in Figure 6 were normalized to its respective agonist response without antagonist. EC50s were calculated by fitting a three-parameter logistic curve using least-squares non-linear regression analysis as implemented in Graphpad Prism 7.0.

GPR139 [1] = biological target: T1, GPR139 (Homo sapiens, UniProt Q6DWJ6); experiment: [3H]JNJ-63533054 radioligand binding assay, membranes of CHO-TREx cells stably expressing human GPR139; parameters: expressed in transfected cells; host or cells: CHO-TREx GPR139 clone#18; settings: 10 nM radioligand; CHO-TREx GPR139 membranes; read-out: pKi, displacement of [3H]JNJ-63533054 (converted)
T1 sequence (Q6DWJ6 1-353): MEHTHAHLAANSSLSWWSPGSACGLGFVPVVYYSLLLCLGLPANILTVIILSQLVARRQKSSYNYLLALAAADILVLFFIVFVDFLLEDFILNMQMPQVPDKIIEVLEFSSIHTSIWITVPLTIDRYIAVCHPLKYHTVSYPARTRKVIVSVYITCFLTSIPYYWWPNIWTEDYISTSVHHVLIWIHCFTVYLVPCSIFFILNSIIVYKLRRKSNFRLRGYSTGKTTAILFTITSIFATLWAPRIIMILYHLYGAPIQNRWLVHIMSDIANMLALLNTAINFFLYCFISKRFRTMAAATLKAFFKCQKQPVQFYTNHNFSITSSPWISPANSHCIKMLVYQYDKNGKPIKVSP
Procedure: Reaction was terminated by filtration through GF/C filterplates pre-treated with PEI (polyethyleneimine) followed by washes with ice-cold TE buffer. Filterplates were dried in a 60°C oven followed by addition of Microscint-0. Bound radioactivity was read on a Topcount scintillation counter. […] Half-maximal inhibitory concentrations (IC50s) of test compounds were calculated by fitting a three-parameter logistic curve using least-squares non-linear regression analysis as implemented in Graphpad Prism 7.0. The Top plateau was fixed at 100 and the Bottom was fixed at 0.

MC5R + GPR139 = MC5R + GPR139 (Homo sapiens, UniProt Q6DWJ6); experiment: Calcium mobilization, HEK-293 transiently expressing MC5R + GPR139; format: cell-based; settings: MC5R + GPR139; 10 μM JNJ-3792165 or 1 μM HS-024
Procedure: as §1, §2

GPR139 [2] = biological target: T1, GPR139; experiment: Calcium mobilization assay, antagonism at GPR139 (cell line not stated); format: cell-based; parameters: expressed in transfected cells; host or cells: CHO-TREx GPR139 clone#18; settings: read-out: pKb, antagonist in calcium mobilization assay (converted)
Procedure: as §2

[3] = test system: over 50 other neurotransmitter and neuropeptide receptors including the MCRs; experiment: Selectivity panel of over 50 other neurotransmitter and neuropeptide receptors; format: binding; settings: at 1 μM
GPR139 [4] = biological target: T1, GPR139; experiment: [35S]-GTPγS binding assay, membranes of CHO-TREx cells stably expressing GPR139; format: biochemical; parameters: expressed in transfected cells; host or cells: CHO-TREx GPR139 clone#18
Procedure: For G-protein inhibitor experiments, CHO-TRex cells stably expressing GPR139 were treated with 100 ng/ml pertussis toxin (Gi/o inhibitor) overnight prior to harvesting cells for membrane preparations. […] Reactions were terminated by rapid filtration through GF/C filterplates (Perkin-Elmer, Waltham, MA, United States) on a Cell Harvester (Perkin-Elmer, Waltham, MA, United States). Filterplates were washed three times with ice-cold wash buffer (50 mM Tris, 5 mM MgCl2) and Microscint-40 was added to each well. Bound radioactivity was measured on a Topcount scintillation counter (Perkin-Elmer, Waltham, MA, United States). […] EC50s were calculated by modeling the response associated with the logarithm of concentration as a three-parameter logistic curve with the Bottom plateau parameter fixed at 0. The fit was obtained using least-squares non-linear regression as implemented in GraphPad Prism 7.0.

GPR139 [5] = biological target: T1, GPR139; parameters: method as in Liu et al., 2015; settings: ref Liu et al., 2015; cited from earlier work
GPR139 [6] = biological target: T1, GPR139; experiment: Calcium mobilization, SK-N-MC/CRE cells stably expressing human GPR139; format: cell-based; parameters: expressed in transfected cells; host or cells: CHO-TREx GPR139 clone#18; settings: SK-N-MC/CRE stable GPR139
Procedure: as §1, §2

GPR139 [7] = biological target: T1, GPR139; experiment: Calcium mobilization, CHO-TREx cells stably expressing human GPR139; format: cell-based; parameters: expressed in transfected cells; host or cells: CHO-TREx GPR139 clone#18; settings: CHO-TREx stable GPR139
MC4R = biological target: T2, MC4R (Homo sapiens, UniProt P32245); experiment: Calcium mobilization, HEK-293 transiently expressing MC4R; format: cell-based; settings: HEK293; HEK-293 transient MC4R alone; read-out: Emax, calcium release in MC4R expressing cells
T2 construct: expressed in transfected cells; host or cells: HEK-293, pCIneo, transient (FuGene HD)
Procedure: as §1, §2

GPR139 [8] = biological target: T1, GPR139; parameters: expressed in transfected cells; host or cells: CHO-TREx GPR139 clone#18; method as in Nøhr et al. (2017b); settings: ref Nøhr et al. (2017b), cited from earlier work; for Activation of GPR139, potency range in words: CHO cells stably expressing human GPR139
GPR139 [9] = biological target: T1, GPR139; experiment: Calcium mobilization, HEK-293 cells stably expressing human GPR139; format: cell-based; parameters: expressed in transfected cells; settings: HEK-293 stable GPR139
Procedure: as §1, §2

MC4R + Gα16 = MC4R + Gα16 (Homo sapiens, UniProt P32245); experiment: Calcium mobilization, CHO-K1 cells transiently expressing MC4R + Gα16; format: cell-based; parameters: expressed in transfected cells; host or cells: CHO-K1, transient; settings: data not shown
Sequence of MC4R + Gα16 (P32245 whole entry): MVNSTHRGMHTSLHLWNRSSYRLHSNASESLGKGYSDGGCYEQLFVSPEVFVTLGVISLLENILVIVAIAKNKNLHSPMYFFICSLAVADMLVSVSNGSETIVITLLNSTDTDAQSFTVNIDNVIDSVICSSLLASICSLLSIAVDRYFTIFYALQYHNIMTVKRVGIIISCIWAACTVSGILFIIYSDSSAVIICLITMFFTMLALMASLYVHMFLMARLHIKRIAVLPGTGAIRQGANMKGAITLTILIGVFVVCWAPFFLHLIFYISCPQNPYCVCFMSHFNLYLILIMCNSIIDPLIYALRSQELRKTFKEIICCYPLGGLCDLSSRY

Sequence of MC5R + GPR139 (P33032 whole entry partner, one chain of several): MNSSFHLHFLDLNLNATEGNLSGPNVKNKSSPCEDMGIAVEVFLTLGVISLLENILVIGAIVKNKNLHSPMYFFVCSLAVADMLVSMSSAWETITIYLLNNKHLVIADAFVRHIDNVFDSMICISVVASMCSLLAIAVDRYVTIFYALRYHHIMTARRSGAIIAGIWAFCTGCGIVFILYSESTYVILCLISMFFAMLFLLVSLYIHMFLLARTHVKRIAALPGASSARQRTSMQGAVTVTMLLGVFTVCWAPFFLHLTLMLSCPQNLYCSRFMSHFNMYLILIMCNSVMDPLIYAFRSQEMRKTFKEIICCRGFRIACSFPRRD
Sequence of MC3R + GPR139 (P41968 whole entry partner, one chain of several): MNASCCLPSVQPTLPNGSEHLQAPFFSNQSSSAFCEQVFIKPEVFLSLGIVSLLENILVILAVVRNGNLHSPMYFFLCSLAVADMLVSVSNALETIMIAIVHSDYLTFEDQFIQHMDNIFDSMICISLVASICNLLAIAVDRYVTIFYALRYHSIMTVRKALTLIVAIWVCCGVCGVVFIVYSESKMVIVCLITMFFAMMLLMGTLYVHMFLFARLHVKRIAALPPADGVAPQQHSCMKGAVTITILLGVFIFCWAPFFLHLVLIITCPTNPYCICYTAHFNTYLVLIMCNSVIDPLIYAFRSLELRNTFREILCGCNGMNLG
Sequence of MC4R + GPR139 (P32245 whole entry partner, one chain of several): as the sequence (P32245 whole entry) above
T2 sequence (P32245 whole entry): as above

Row | Compound | Antagonist effect on ACTH, α-MSH and β-MSH induced calcium response (MC3R + GPR139) | Antagonist effect on calcium response to GPR139 agonists (JNJ-63533054, TC-09311, L-Trp) (MC3R + GPR139) | Antagonist effect on ACTH, α-MSH and β-MSH induced calcium response (MC4R + GPR139) | Antagonist effect on calcium response to GPR139 agonists (JNJ-63533054, TC-09311, L-Trp) (MC4R + GPR139) | Antagonist effect on ACTH, α-MSH and β-MSH induced calcium response (MC5R + GPR139) | Antagonist effect on calcium response to GPR139 agonists (JNJ-63533054, TC-09311, L-Trp) (MC5R + GPR139) | Emax (MC4R) [%] | Activation of GPR139, potency range in words (GPR139 [8]) | Calcium mobilization activity, in words (GPR139 [9]) | Calcium response in CHO-K1 cells co-expressing MC4R + Gα16 (MC4R + Gα16) | further results
1 | Cc1cccc(NC(=O)c2cc(C)n(Cc3c(Cl)cccc3Cl)n2)c1 [JNJ-3792165, 1H-pyrazole-3-carboxamide, 1-[(2,6-dichlorophenyl)methyl]-5-methyl-N-(3-methylphenyl)] | did not block | fully inhibited | did not block | fully inhibited | did not block | fully inhibited | – | – | – | – | Ki (GPR139 [1]): 20 nM; Kb (GPR139 [2]): 126 nM; Inhibition at any receptor other than GPR139 (selectivity panel) [3]: less than 50%; Kb (GPR139 [4]; read-out: pKb, antagonist in [35S]GTPγS assay (converted)): 39.8 nM
2 | N[C@@H](Cc1ccccc1)C(=O)O [L-Phe, L-phenylalanine] | – | – | – | – | – | – | – | – | – | – | EC50 (GPR139 [5]): 30000 to 300000 nM
3 | CSCC[C@H](NC(=O)[C@H](CCCNC(=N)N)NC(=O)[C@H](Cc1ccc(O)cc1)NC(=O)[C@@H]1CCCN1C(=O)CNC(=O)[C@H](CCC(=O)O)NC(=O)[C@H](CC(=O)O)NC(=O)[C@H](CCCCN)NC(=O)[C@H](CCCCN)NC(=O)[C@H](CCC(=O)O)NC(=O)[C@H](C)N)C(=O)N[C@@H](CCC(=O)O)C(=O)N[C@@H](Cc1c[nH]cn1)C(=O)N[C@@H](Cc1ccccc1)C(=O)N[C@@H](CCCNC(=N)N)C(=O)N[C@@H](Cc1c[nH]c2ccccc12)C(=O)NCC(=O)N[C@@H](CO)C(=O)N1CCC[C@H]1C(=O)N1CCC[C@H]1C(=O)N[C@@H](CCCCN)C(=O)N[C@@H](CC(=O)O)C(=O)O [β-MSH, β melanocyte stimulating hormone] | – | – | – | – | – | – | 24 | sub- to low micromolar range | No activity was detected | calcium response | Calcium mobilization activity, in words (GPR139 [6]): No activity was detected; Calcium mobilization activity, in words (GPR139 [7]): No activity was detected; Activation of GPR139 ([35S]-GTPγS incorporation), in words (GPR139 [4]; up to 30 μM): did not activate GPR139
4 | HS-024 | rightward shift of the EC50 | had no effect | reduction in both potency and efficacy | had no effect | fully blocked | reduced the efficacy | – | – | – | – | –
5 | SYSMEHFRWGKPVGKKRRPVKVYPNGAEDESAEAFPLEF [ACTH, adrenocorticotropic hormone] | – | – | – | – | – | – | 27 | sub- to low micromolar range | did not increase calcium mobilization | calcium response | Fold less potent on GPR139 than on MC4R (GPR139 [8]): 100 fold
